In US8906921B2, “4-alkoxypyridazine derivatives as fast dissociating dopamine 2 receptor antagonists” (Janssen Pharmaceutica NV, priority 2007, dated 2014) one finds melting point data, which are given here for 4 compounds.

Where a name gives a salt, the structure may show the parent alone.

For the compound `COc1cc(Cl)nnc1NC1CCN(Cc2cc(F)cc(C(F)(F)F)c2)CC1`, the melting point (as a rule, the temperature, or range, at which the solid turns liquid) was found to be 121.5 °C.
Compound `COc1cc(C(F)(F)F)nnc1NC1CCN(Cc2cccc(C(F)(F)F)c2)CC1` (as salt: hydrochloride) returned a melting point of 211.3 °C.
The result for `COc1cc(Cl)nnc1NC1CCN(Cc2cc(F)c(F)c(F)c2)CC1` reads 150.7 °C; that for `COc1cc(Cl)nnc1NC1CCN(Cc2ccc(F)c(F)c2)CC1`, 130.5 °C.
